Patent US10849867B2, “Methods and compositions for treating conditions associated with an abnormal inflammatory response” (First Wave Bio, Inc., priority 2015, dated 2020)

Tested on: human LPMCs T cells
Experiment: ΔΨm in T cells isolated from human intestine lamina propria (LPMC), TMRM with oligomycin (Example 2)
Assay type: cell-based
Description: Objective. […] Model. Lamina propria mononuclear cells (LPMC) in the human intestine are comprised in part by T cells, which mediate physiological and pathological processes including inflammatory bowel disease. LPMCs can be isolated from human tissue biopsies. After isolation […] cells remain viable ex vivo under appropriate culture conditions for periods of time that allow ex vivo experiments. These cells can be used to investigate mechanisms that regulate their mitochondrial function and survival. They contain respiring mitochondria and as such their response to mitochondrial uncouplers such as niclosamide may be assessed. This cellular model is used in conjunction with oligomycin that blocks oxidative phosphorylation and TMRM to monitor ΔΨm as described in Example 1. Cell isolation and culture. Cells are obtained from biopsy specimens of the small or large intestine or rectum of humans from areas of normal gastrointestinal tissue or with moderate to severe Crohn's disease (CD), ulcerative colitis (UC), or celiac disease. For the isolation of lamina propria mononuclear […] specimens are initially washed in Hank's balanced salt solution (HBSS) then are cut into 0.5-cm pieces, and are incubated with stirring in pre-warmed HBSS containing 1 mM DTT at 37° C. for 15 minutes. […] The isolated cells are counted and checked for viability using 0.1% trypan blue (viability ranges from 86% to 94%). […] In addition, anti-CD3 monoclonal antibody conjugated to FITC (excitation at 494 nm with emission detected at 521 nm) is additionally added during incubation with TMRM at 37° C. for 30 minutes. […] LPMC T cells are first defined by their fluorescence emission at 521 nm resulting from labeling with FITC-anti-CD3 antibody. The n fluorescence intensity of TMRM detected at 590 nm in the T cell population is measured. Median fluorescence intensity of the TMRM signal are computed. Ratios of the median fluorescence intensity of each treated sample to the control sample mean are then calculated as a measure of relative decrease in ΔΨm. […]

O=C(Nc1ccc([N+](=O)[O-])cc1Cl)c1cc(Cl)ccc1O [Niclosamide, 5-chloro-N-(2-chloro-4-nitrophenyl)-2-hydroxybenzamide] was tested, and the “change in ΔΨm in human LPMCs T cells” value (TMRM, oligomycin, relative to negative controls) was “dose-related decrease”, the “concentrations of niclosamide that decrease ΔΨm (p<0.05)” value (human LPMCs T cells, relative to negative controls) was at least 5 µM and the “mitochondrial uncoupling in lamina propria T cell” value (niclosamide 5 μM) was “more than 50%”.
